Reference: patent US9221838B2, “Inhibitors of AKT activity” (ALMAC DISCOVERY LIMITED, priority 2009, dated 2015)

Experiments:
Format in all cases: biochemical
AKT1 = target: T1, AKT1 (Homo sapiens, UniProt P31749); assay: AKT Kinase Assay (IMAP fluorescent polarisation) vs AKT1
T1 construct: purchased SignalChem
Method: (§1) Testing of the compounds was performed using an AKT Kinase Assay:
(§2) Activated AKT isoforms 1, 2 and 3 were assayed utilising a 5′ FAM Crosstide (Seq. GRPRTSSFAEG-OH)(SEO ID NO: 1). The extent of kinase phosphorylation was determined by fluorescent polarisation using IMAP progressive binding reagent, which introduces binding beads which allow the reagent to specifically bind to phosphate residues via covalent co-ordination complex bonds.
(§3) iMAP binding solution stops Crosstide/kinase interaction and specifically binds phosphorylated substrates. The degree of phosphorylation is determined by fluorescent polarisation (excitation 485 nm; emission 528 nm) or the reduction in speed of rotation of the excited substrate.
(§4) The following materials were used in the assay: • a) Activated AKT isoforms (SignalChem.) dissolved in Complete Reaction buffer at a pre-determined concentration selected so that the assay was carried out in the linear range. • b) AKT substrate peptide: FAM Crosstide (R7110) Molecular Devices, diluted in complete reaction buffer. • c) iMAP Progressive Screening Express Kit (R8127) Molecular Devices • d) Complete Reaction Buffer containing 0.1% BSA, 10 mM Tris-HCl, 10 mM MgCl2, 0.05% NaN3 and 0.01% phosphate free BSA, 1 mM DTT • e) Progressive Binding Solution containing 75% Buffer A, 25% Buffer B and low volume Binding Reagent which contains the binding entity for the assay • f) ATP diluted in complete reaction buffer • g) Black polystyrene 384 well assay plates (Nunc). • h) Biotek Synergy 4 Hybrid Plate reader.
(§5) 5 μl of test compound was dissolved in DMSO (Sigma Aldrich) and serially diluted in complete reaction buffer to give a fourteen point half log dose response and plated into 384 well black plates. The compound was incubated at room temperature with activated AKT isoform ([…] ) at the pre-determined concentration, for 45 minutes.
(§6) 2.5 μl of ATP solution mixed with 2.5 μl of AKT substrate peptide (FAM Crosstide (R7110) Molecular Devices) were dispensed into each well and the plate centrifuged at 1000 rpm for 20 seconds to ensure homogenous mixing of reagents. The reaction mix was incubated in the dark for one hour at room temperature.
(§7) The kinase reaction was stopped by the addition of Progressive Binding Solution and the mixture allowed to equilibrate for one hour in the dark, at room temperature.
(§8) The fluorescent polarisation generated in each well was determined using a […] Synergy 4 Hybrid plate reader. In brief, each reaction solution was excited at 485 nm with the emission measured at 528 nm in both the parallel and perpendicular pathway.
(§9) The polarisation value generated in each well was calculated by Gen5 software (Biotek) and the % inhibition of kinase activity compared to vehicle control was calculated via GraphPad Prism. IC50 values for each compound were calculated by non-linear regression analysis using Prism software.
(§10) All plates were internally controlled by two methods. Firstly, by calculating the signal:noise ratio; based on kinase polarisation without inhibitor and polarisation generated by complete reaction buffer in the absence of activated kinase. Secondly by determining IC50 values generated by known inhibitors of the AKT isoforms.

AKT2 = target: T2, AKT2 (Homo sapiens, UniProt P31751); assay: AKT Kinase Assay (IMAP fluorescent polarisation) vs AKT2
T2 construct: purchased SignalChem
Method: as §1, §2, §3, §4, §5, §6, §7, §8, §9, §10

AKT3 = target: T3, AKT3 (Homo sapiens, UniProt Q9Y243); assay: AKT Kinase Assay (IMAP fluorescent polarisation) vs AKT3
T3 construct: purchased SignalChem
Method: as §1, §2, §3, §4, §5, §6, §7, §8, §9, §10

T1 sequence (P31749 whole entry): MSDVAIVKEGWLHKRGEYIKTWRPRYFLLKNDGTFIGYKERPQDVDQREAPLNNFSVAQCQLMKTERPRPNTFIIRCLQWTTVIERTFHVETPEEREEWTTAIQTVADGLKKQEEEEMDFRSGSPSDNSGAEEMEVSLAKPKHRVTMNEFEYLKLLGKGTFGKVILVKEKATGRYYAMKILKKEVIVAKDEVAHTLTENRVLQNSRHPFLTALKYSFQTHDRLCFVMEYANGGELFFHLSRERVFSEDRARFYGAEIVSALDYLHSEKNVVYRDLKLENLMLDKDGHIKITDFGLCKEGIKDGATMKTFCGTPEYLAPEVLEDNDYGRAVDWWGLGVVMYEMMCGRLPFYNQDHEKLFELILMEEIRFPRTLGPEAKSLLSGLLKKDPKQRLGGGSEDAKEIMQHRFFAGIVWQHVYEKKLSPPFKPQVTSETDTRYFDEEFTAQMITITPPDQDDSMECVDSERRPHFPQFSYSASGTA
T3 sequence (Q9Y243 whole entry): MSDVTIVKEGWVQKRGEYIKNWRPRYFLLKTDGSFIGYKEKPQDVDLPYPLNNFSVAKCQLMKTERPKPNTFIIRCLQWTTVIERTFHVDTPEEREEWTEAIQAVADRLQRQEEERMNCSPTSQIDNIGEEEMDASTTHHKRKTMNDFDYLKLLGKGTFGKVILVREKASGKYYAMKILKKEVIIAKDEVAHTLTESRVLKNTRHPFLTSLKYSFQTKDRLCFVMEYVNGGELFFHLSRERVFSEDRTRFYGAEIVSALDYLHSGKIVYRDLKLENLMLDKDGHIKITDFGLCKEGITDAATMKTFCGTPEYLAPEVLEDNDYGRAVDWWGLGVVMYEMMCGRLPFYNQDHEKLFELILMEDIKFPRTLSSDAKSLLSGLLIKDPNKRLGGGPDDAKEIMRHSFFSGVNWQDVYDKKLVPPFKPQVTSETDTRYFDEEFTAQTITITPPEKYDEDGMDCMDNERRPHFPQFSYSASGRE
T2 sequence (P31751 whole entry): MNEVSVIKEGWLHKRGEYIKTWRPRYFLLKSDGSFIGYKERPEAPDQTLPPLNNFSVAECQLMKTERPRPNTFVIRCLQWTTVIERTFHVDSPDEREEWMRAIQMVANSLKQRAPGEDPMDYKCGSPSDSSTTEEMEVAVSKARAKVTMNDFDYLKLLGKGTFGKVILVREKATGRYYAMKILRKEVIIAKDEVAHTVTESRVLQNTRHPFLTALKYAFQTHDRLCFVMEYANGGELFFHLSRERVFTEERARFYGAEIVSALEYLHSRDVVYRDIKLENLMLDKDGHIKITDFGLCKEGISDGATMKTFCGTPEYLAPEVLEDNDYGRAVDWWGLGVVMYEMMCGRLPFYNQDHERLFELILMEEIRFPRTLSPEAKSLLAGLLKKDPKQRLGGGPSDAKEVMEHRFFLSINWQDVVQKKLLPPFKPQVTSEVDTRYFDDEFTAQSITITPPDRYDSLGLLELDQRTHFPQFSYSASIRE

| Structure (SMILES) | IC50 (AKT1) [nM] | IC50 (AKT2) [nM] | IC50 (AKT3) [nM] |
| --- | --- | --- | --- |
| N[C@]1(c2ccc(-c3nc4c(cc3-c3ccccc3)-n3c(n[nH]c3=O)CO4)cc2)C[C@H](O)C1 [Example 141, 7-(4-((1s,3s)-1-amino-3-hydroxycyclobutyl)phenyl)-8-phenyl-2,4-dihydro-1H-pyrido[2,3-b][1,2,4]triazolo[4,3-d][1,4]oxazin-1-one] | 100 to 1000 | 100 to 1000 | 100 to 1000 |
| N#CCCCN1C(=O)COc2nc(-c3ccc(C4(N)CCC4)cc3)c(-c3ccccc3)cc21 [Example 64, 4-(6-(4-(1-aminocyclobutyl)phenyl)-2-oxo-7-phenyl-2,3-dihydro-1H-pyrido[2,3-b][1,4]oxazin-1-yl)butanenitrile] | 100 to 1000 | 100 to 1000 | 1000 to 10000 |
| COCCN1C(=O)COc2nc(-c3ccc(C4(N)CCC4)cc3)c(-c3ccccc3)cc21 [Example 51, 6-(4-(1-aminocyclobutyl)phenyl)-1-(2-methoxyethyl)-7-phenyl-1H-pyrido[2,3-b][1,4]oxazin-2(3H)-one] | 100 to 1000 | 100 to 1000 | 1000 to 10000 |
| CC1Oc2nc(-c3ccc(C4(N)CCC4)cc3)c(-c3ccccc3)cc2NC1=O (stereo not drawn) [Example 80, 6-(4-(1-aminocyclobutyl)phenyl)-3-methyl-7-phenyl-1H-pyrido[2,3-b][1,4]oxazin-2(3H)-one] | 100 to 1000 | 100 to 1000 | > 10000 |
| N#CCCCCN1C(=O)COc2nc(-c3ccc(C4(N)CCC4)cc3)c(-c3ccccc3)cc21 [Example 66, 5-(6-(4-(1-aminocyclobutyl)phenyl)-2-oxo-7-phenyl-2,3-dihydro-1H-pyrido[2,3-b][1,4]oxazin-1-yl)pentanenitrile] | 100 to 1000 | 100 to 1000 | 1000 to 10000 |
| CCN1C(=O)COc2nc(-c3ccc(CN)cc3)c(-c3ccccc3)cc21 [Example 151, 6-(4-(Aminomethyl)phenyl)-1-ethyl-7-phenyl-1H-pyrido[2,3-b][1,4]oxazin-2(3H)-one] | 1000 to 10000 | 100 to 1000 | > 10000 |
| NC1(c2ccc(-c3nc4c(cc3-c3ccccc3)N(Cc3ncc[nH]3)C(=O)CO4)cc2)CCC1 [Example 42, 1-((1H-imidazol-2-yl)methyl)-6-(4-(1-aminocyclobutyl)phenyl)-7-phenyl-1H-pyrido[2,3-b][1,4]oxazin-2(3H)-one] | 1000 to 10000 | 100 to 1000 | 1000 to 10000 |
| CO/N=C1\COc2nc(-c3ccc(C4(N)CCC4)cc3)c(-c3ccccc3)cc2N1C [Example 90, 6-(4-(1-Aminocyclobutyl)phenyl)-1-methyl-7-phenyl-1H-pyrido[2,3-b][1,4]oxazin-2(3H)-one O-methyl oxime] | 1000 to 10000 | 100 to 1000 | > 10000 |
| CN1C(=O)C(CCO)Oc2nc(-c3ccc(C4(N)CCC4)cc3)c(-c3ccccc3)cc21 (stereo not drawn) [Example 77, 6-(4-(1-aminocyclobutyl)phenyl)-3-(2-hydroxyethyl)-1-methyl-7-phenyl-1H-pyrido[2,3-b][1,4]oxazin-2(3H)-one] | 100 to 1000 | 1000 to 10000 | > 10000 |
| NC1(c2ccc(-c3nc4c(cc3-c3ccccc3)N(Cc3cnc[nH]3)C(=O)CO4)cc2)CCC1 [Example 53, 1-((1H-imidazol-5-yl)methyl)-6-(4-(1-aminocyclobutyl)phenyl)-7-phenyl-1H-pyrido[2,3-b][1,4]oxazin-2(3H)-one] | 1000 to 10000 | 1000 to 10000 | 1000 to 10000 |
| CSc1[nH]nc2c1CCc1nc(-c3ccc(C4(N)CCC4)cc3)c(-c3ccccc3)cc1-2 [Example 9, 1-(4-(3-(methylthio)-8-phenyl-4,5-dihydro-2H-pyrazolo[3,4-f]quinolin-7-yl)phenyl)cyclobutanamine] | 100 to 1000 | 1000 to 10000 | > 10000 |
| N#CCN1CCOc2nc(-c3ccc(C4(N)CCC4)cc3)c(-c3ccccc3)cc21 [Example 43, 2-(6-(4-(1-aminocyclobutyl)phenyl)-7-phenyl-2,3-dihydro-1H-pyrido[2,3-b][1,4]oxazin-1-yl)acetonitrile] | 100 to 1000 | ≤ 100 | > 10000 |
| CNc1[nH]nc2c1CCc1nc(-c3ccc(C4(N)CCC4)cc3)c(-c3ccccc3)cc1-2 [Example 11, 7-(4-(1-aminocyclobutyl)phenyl)-N-methyl-8-phenyl-4,5-dihydro-2H-pyrazolo[3,4-f]quinolin-3-amine] | 100 to 1000 | 100 to 1000 | > 10000 |
| N#CCN1C(=O)COc2nc(-c3ccc(CN)cc3)c(-c3ccccc3)cc21 [Example 135, 2-(6-(4-(aminomethyl)phenyl)-2-oxo-7-phenyl-2,3-dihydro-1H-pyrido[2,3-b][1,4]oxazin-1-yl)acetonitrile] | 100 to 1000 | ≤ 100 | 1000 to 10000 |
| N[C@]1(c2ccc(-c3nc4c(cc3-c3ccccc3)N(CC(F)(F)F)C(=O)CO4)cc2)C[C@H](O)C1 [Example 148, 6-(4-((1s,3s)-1-amino-3-hydroxycyclobutyl)phenyl)-7-phenyl-1-(2,2,2-trifluoroethyl)-1H-pyrido[2,3-b][1,4]oxazin-2(3H)-one] | 100 to 1000 | 100 to 1000 | > 10000 |
| NC1(c2ccc(-c3nc4c(cc3-c3ccccc3)N(Cc3ccncc3)C(=O)CO4)cc2)CCC1 [Example 45, 6-(4-(1-aminocyclobutyl)phenyl)-7-phenyl-1-(pyridin-4-ylmethyl)-1H-pyrido[2,3-b][1,4]oxazin-2(3H)-one] | 1000 to 10000 | 100 to 1000 | 1000 to 10000 |
| Cn1cc2c(n1)-c1cc(-c3ccccc3)c(-c3ccc(C4(N)CCC4)cc3)nc1CC2 [Example 5, 1-(4-(2-methyl-8-phenyl-4,5-dihydro-2H-pyrazolo[3,4-f]quinolin-7-yl)phenyl)cyclobutanamine] | 100 to 1000 | 1000 to 10000 | > 10000 |
| C[C@H]1Oc2nc(-c3ccc(C4(N)CCC4)cc3)c(-c3ccccc3)cc2N(CC#N)C1=O [Example 93, (R)-2-(6-(4-(1-aminocyclobutyl)phenyl)-3-methyl-2-oxo-7-phenyl-2,3-dihydro-1H-pyrido[2,3-b][1,4]oxazin-1-yl)acetonitrile] | ≤ 100 | ≤ 100 | 1000 to 10000 |
| Cc1nnc2n1-c1cc(-c3ccccc3)c(-c3ccc(C4(N)CCC4)cc3)nc1OC2 [Example 63, 1-(4-(1-methyl-8-phenyl-4H-pyrido[2,3-b][1,2,4]triazolo[4,3-d][1,4]oxazin-7-yl)phenyl)cyclobutanamine] | 100 to 1000 | 1000 to 10000 | > 10000 |
| NC1(c2ccc(-c3nc4c(cc3-c3ccccc3)NC(=O)CO4)cc2)CCC1 [Example 30, 6-(4-(1-aminocyclobutyl)phenyl)-7-phenyl-1H-pyrido[2,3-b][1,4]oxazin-2(3H)-one] | 1000 to 10000 | 1000 to 10000 | 1000 to 10000 |
| CCN1C(=O)COc2nc(-c3ccc([C@]4(N)C[C@@H](O)C4)cc3)c(-c3ccccc3)cc21 [Example 139, 6-(4-((1s,3s)-1-amino-3-hydroxycyclobutyl)phenyl)-1-ethyl-7-phenyl-1H-pyrido[2,3-b][1,4]oxazin-2(3H)-one] | 100 to 1000 | 100 to 1000 | 1000 to 10000 |
| CC(C)c1nnc2n1-c1cc(-c3ccccc3)c(-c3ccc(C4(N)CCC4)cc3)nc1OC2 [Example 112, 1-(4-(1-isopropyl-8-phenyl-4H-pyrido[2,3-b][1,2,4]triazolo[4,3-d][1,4]oxazin-7-yl)phenyl)cyclobutanamine] | 100 to 1000 | 1000 to 10000 | 1000 to 10000 |
| NC1(c2ccc(-c3nc4c(cc3-c3ccccc3)-n3c(nnc3CC(F)(F)F)CO4)cc2)CCC1 [Example 118, 1-(4-(8-phenyl-1-(2,2,2-trifluoroethyl)-4H-pyrido[2,3-b][1,2,4]triazolo[4,3-d][1,4]oxazin-7-yl)phenyl)cyclobutanamine] | 100 to 1000 | 1000 to 10000 | 1000 to 10000 |
| NC1(c2ccc(-c3nc4c(cc3-c3ccccc3)N(CC(F)F)C(=O)CO4)cc2)CCC1 [Example 85, 6-(4-(1-aminocyclobutyl)phenyl)-1-(2,2-difluoroethyl)-7-phenyl-1H-pyrido[2,3-b][1,4]oxazin-2(3H)-one] | 100 to 1000 | ≤ 100 | 100 to 1000 |
